Values joined by “and” are separate entries in the source; they are usually repeats but may differ in a detail not shown here. Equal entries are not always repeated.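 Following 48 hours of exposure in 96-well plates, responses at five concentrations were used to interpolate endpoints linearly. GI50 is the concentration that inhibits growth by half. TGI is the concentration that stops growth completely.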
What was measured:
Test in all cases: NCI-60 cell line screen, 48 h
CCRF-CEM leukemia = tested on: CCRF-CEM leukemia
DU-145 prostate = tested on: DU-145 prostate
HCC-2998 colon = tested on: HCC-2998 colon
HOP-62 NSCLC = tested on: HOP-62 NSCLC
MALME-3M melanoma = tested on: MALME-3M melanoma
MCF7 breast = tested on: MCF7 breast
MOLT-4 leukemia = tested on: MOLT-4 leukemia
NCI-H460 lung = tested on: NCI-H460 lung
SF-539 CNS = tested on: SF-539 CNS
SN12C renal = tested on: SN12C renal

Compound	GI50 (CCRF-CEM leukemia)	TGI (CCRF-CEM leukemia)	GI50 (DU-145 prostate)	TGI (DU-145 prostate)	GI50 (HCC-2998 colon)	TGI (HCC-2998 colon)	GI50 (HOP-62 NSCLC)	TGI (HOP-62 NSCLC)	GI50 (MALME-3M melanoma)	TGI (MALME-3M melanoma)	GI50 (MCF7 breast)	TGI (MCF7 breast)	GI50 (MOLT-4 leukemia)	TGI (MOLT-4 leukemia)	GI50 (NCI-H460 lung)	TGI (NCI-H460 lung)	GI50 (SF-539 CNS)	TGI (SF-539 CNS)	GI50 (SN12C renal)	TGI (SN12C renal)
O=C1C=CC(=O)N1c1ccc2ccccc2c1	2.09 µM	7.94 µM	12.3 µM	25.6 µM	17.8 µM	32.8 µM	16.2 µM	31.1 µM	2.98 µM	8.19 µM	16.6 µM	41.4 µM	4.49 µM	34.9 µM	17.5 µM	37.9 µM	17.7 µM	33.9 µM	16.6 µM	34.1 µM
COc1cccc(/C=C2\COc3ccc(O)c(O)c3C2=O)c1OC	0.61 µM	> 100 µM	2.61 µM	10.4 µM	1.99 µM	3.96 µM	8.79 µM	22.8 µM	2.09 µM	6.11 µM	1.76 µM	14.9 µM	1.83 µM	> 100 µM	2.34 µM	7.12 µM	2.07 µM	4.77 µM	2.77 µM	12.9 µM
COC(=O)c1cc2c3cc(Cl)ccc3[nH]c2c2ncccc12	> 100 µM	> 100 µM	> 100 µM	> 100 µM	> 100 µM	> 100 µM	> 100 µM	> 100 µM	> 100 µM	> 100 µM	> 100 µM	> 100 µM	> 100 µM	> 100 µM	> 100 µM	> 100 µM	51.8 µM	> 100 µM	> 100 µM	> 100 µM
Nc1ncnc2occ(-c3ccc(NC(=O)Nc4cccc(C(F)(F)F)c4)cc3)c12	3.51 µM	20.1 µM	4.82 µM	16.1 µM	6.11 µM	14.3 µM	5.09 µM	10 µM	5.74 µM	13.3 µM	2.34 µM	19.3 µM	3.54 µM	15.5 µM	3.46 µM	9.3 µM	0.702 µM	7.1 µM	2.01 µM	18 µM
O=C(Nc1cccc2[nH]c(C(F)(F)F)nc12)c1ccc(Br)cc1F	3.23 µM	20.1 µM	4.87 µM	20.5 µM	4.8 µM	16 µM	2.43 µM	8.88 µM	2.86 µM	6.82 µM	2.5 µM	15 µM	3.83 µM	23.3 µM	3.45 µM	12.4 µM	3.26 µM	11.6 µM	3.1 µM	10.8 µM
Nc1ccccc1SC(CC(=O)c1ccccc1)c1c(Cl)cccc1Cl (stereo not given)	2.67 µM	8.49 µM	5.8 µM	18.3 µM	2.61 µM	5.73 µM	6.82 µM	27.7 µM	10.8 µM	25.3 µM	1.25 µM	13.1 µM	3 µM	7.79 µM	4.59 µM	17.6 µM	6.17 µM	20.5 µM	2.94 µM	11.5 µM
CC12CC(Br)(Br)C(=O)C3C1CCCC32		9.43 µM		25.1 µM		13.8 µM		28.5 µM		9.5 µM		11.2 µM		14.9 µM		31.7 µM		23 µM		11.4 µM
Cc1nc2ccccc2c(/C=C/c2ccc(F)cc2)c1C(=O)/C=C/c1ccccc1	2.44 µM	> 100 µM	2.34 µM	6.21 µM	1.76 µM	3.32 µM	1.91 µM	4.27 µM	2.18 µM	5.03 µM	2.08 µM	> 100 µM	1.74 µM	6.57 µM	1.79 µM	3.71 µM	1.81 µM	3.57 µM	2.25 µM	6.07 µM
NC(=O)c1c(NC(=O)c2ccc(C(F)(F)F)cc2Cl)sc2c1CCC(=O)C2	0.146 µM	> 100 µM	3.83 µM	25 µM		3.36 µM	1.25 µM	> 44.5 µM	0.292 µM	1.39 µM	0.279 µM	4.08 µM	0.361 µM	> 100 µM	1.29 µM	9.48 µM	0.28 µM	1.04 µM	0.36 µM	2.04 µM
CCOC(=O)c1ccc(N[C@@H]2c3cc4c(cc3C(c3cc(OC)c(O)c(OC)c3)[C@H]3C(=O)OCC32)OCO4)cc1 (stereo not given in full)	0.116 µM	0.925 µM and 1.81 µM		> 100 µM	0.868 µM	3.69 µM	0.212 µM and 0.129 µM	0.709 µM and 0.79 µM	0.343 µM	2.95 µM		20.3 µM	0.0271 µM	0.219 µM and 0.158 µM	0.0385 µM	1.33 µM	0.34 µM	0.951 µM and 1.97 µM	0.249 µM	0.955 µM and 3.91 µM
O=C(Nc1ccc(Br)cc1)c1cc(Br)ccc1O	0.862 µM and 0.752 µM		0.539 µM and 2.03 µM	> 47 µM and 14.1 µM	2.36 µM and 3.46 µM	7.67 µM and 35.7 µM	0.791 µM and 1.73 µM	8.75 µM and 5.31 µM	0.284 µM and 0.48 µM	1.57 µM and 4.2 µM	0.412 µM and 1.29 µM	3.37 µM and 7.8 µM	0.683 µM and 0.799 µM	3.2 µM and 3.89 µM	0.389 µM and 0.617 µM	4.96 µM and 10.7 µM	0.647 µM and 0.7 µM	13 µM and 10.1 µM	0.252 µM and 1.42 µM	5.14 µM and 8.36 µM
CC(C)OC(=O)NNc1c(Cl)cc(Cl)cc1Cl		> 100 µM		> 100 µM		> 100 µM		> 100 µM		74.2 µM		> 100 µM		> 100 µM		> 100 µM		> 100 µM		> 100 µM
C=CC(=O)N1CCN(c2nc(OC[C@@H]3CCCN3C)nc3c(F)c(-c4nc(N)cc(C)c4C(F)(F)F)c(Cl)cc23)[C@@H](C)C1	3.08 µM	> 100 µM	2.65 µM	7.2 µM	1.25 µM	2.57 µM		13.1 µM	1.86 µM	3.37 µM	1.13 µM	2.51 µM	1.91 µM	7.63 µM	2.29 µM	5.39 µM	1.73 µM	3.51 µM	1.6 µM	3.62 µM

— PubChem BioAssay (NCI)
